The conditions of data set [1]: cited from earlier work. The text has this: EC50 values of TGP3 and TGP4 were lower than those of APs from protein ...
For data set [2] the following is noted: cited from earlier work. How it is done:
Defatted muscle of blood cockle was hydrolyzed under a two-enzyme system (Alcalase treatment for 1.5 h following Neutrase treatment for 1.5 h), and the degree of hydrolysis (DH) and yield of the resulted hydrolysate (referred to as TGH) were 19.32 ± 1.37% and 9.62 ± 0.86% (on the basis of defatted muscle), respectively. […] In addition, the EC50 values of TGP3 and TGP4 were lower than those o ...
The source holds these as a separate data set.

For data set [3] the following is noted: cited from earlier work. The source holds these as a separate data set.
For data set [4] the following is noted: cited from earlier work; for EC50 (half elimination ratio) on ABTS cation radical: APs from blue-spotted stingray. The text has this:
Bioactive peptides (BPs), which in general range from 2 to 20 amino acids in size, are fragments of proteins and become active when released during enzymatic hydrolysis, gastrointestinal transit, and fermentation. […] Furthermore, EC50 values of TGP3 and TGP4 were lower than those of APs from protein hydrolysates of skip ...

Data set [5] can be described thus: Simulated GI digestion (pepsin + pancreatin), read out as hydroxyl radical scavenging EC50. In kind it is in vitro ADME. To be noted: two-stage digestion: pepsin 1.0 h + pancreatin 2.0 h; judged from hydroxyl radical EC50. As to the method: First, 1.0 mL of a 1.87 mM 1,10-phenanthroline solution and 2.0 mL of the sample were added to a screw-capped tube and mixed. Then, 1.0 mL of a FeSO4·7H2O solution (1.87 mM) was added to the mixture. The reaction was initiated by adding 1.0 mL of H2O2 (0.03%, v/v). After being incubated at 37 °C for 60 min in a water bath, the absorbance of the reaction mixture was measured at 536 nm against a reagent blank. The reaction mixture without any antioxidant was used as the negative control, and a mixture without H2O2 was used as the blank. The hydroxyl radical scavenging activity was calculated using the following formula: Hydroxyl radical scavenging activity (%) = [(As − An)/(Ab − An)] × 100% (3) where As, An, and Ab are the absorbance values determined at 536 nm of the sample, the negative control, and the blank after the reaction, respectively.
Stability of TGP3 and TGP4 were measured according to the previous method with minor modifications. A temperature-controlled water bath at 25, 37, 60, 80, or 100 °C for 0.5 h was used to measure thermostability of TGP3 and TGP4. Effects of pH treatments (pH 3, 5, 7, 9, or 11) of sample solutions incubated at 25 °C for 2.5 h were assessed to analyze the pH stability of TGP3 and TGP4. […] Hydroxyl radical scavenging activities (EC50 value) of the treated TGP3 and TGP4 were measured according to the previous methods.

For data set [6] the following is noted: cited from earlier work; for Change of activity during heat treatment: heat 25–100 °C; for Change of activity during pH treatment: pH 3–11. The text has this:
Heat treatment is a common method of food processing and APs are helpful to lengthen the food shelf-life if they can keep their activity after heating. Peptides with large-scale pH stability can be incorporated into diverse liquid products and keep their bioactivity. Therefore, thermal and pH stability of peptides are important indexes for their application in functional products, and characterization of those properties can help to design their potential processing parameters. ATSHH from protein hydrolysate of sandfish (Arctoscopus japonicus) partially lost its DPPH radical scaven ...

The mark [7] stands for this setting: APs from miiuy croaker swim bladder.
The mark [8] stands for this setting: APs from croceine croaker scale.
The mark [9] stands for this setting: APs from spotless smoothhound (Mustelus griseus) muscle.

Read-outs that look alike come from different tables or passages of the source. Residues, ends and D or L forms follow the SMILES beside them. No end group written: not given here.

As for “PSYV [literature AP from weatherfish loach]”, the “EC50 on hydroxyl radical” value in data set [1] (AP from weatherfish loach) was 2640 µg/mL.

Turning to “FMPLH [literature AP from miiuy croaker muscle]”, in data set [1] (APs from miiuy croaker muscle), the “EC50 on hydroxyl radical” value was 800 µg/mL. Moreover, the “EC50 on DPPH radical” value in data set [2] (APs from miiuy croaker muscle) is 480 µg/mL. Also, in data set [3] (APs from miiuy croaker muscle), the “EC50 on superoxide anion radical” value is 150 µg/mL.

As to FLNEFLHV [literature AP from salmon], in data set [4] (AP from salmon), the “EC50 on ABTS cation radical” value is 1548 µg/mL.

As to “GIEWA [literature AP from miiuy croaker swim bladder]”, the “EC50 on hydroxyl radical” value in data set [1] (setting [7]) was 710 µg/mL. In addition, the “EC50 on DPPH radical” value in data set [2] (AP from miiuy croaker swim bladder) was 780 µg/mL. The “EC50 on superoxide anion radical” value in data set [3] (setting [7]) is 300 µg/mL.

On to “GPDGR [literature AP from skipjack tuna bone]”, for which, in data set [4] (APs from skipjack tuna bone), the “EC50 on ABTS cation radical” value is 1070 µg/mL. Further, the “EC50 on superoxide anion radical” value in data set [3] (APs from skipjack tuna bone) is 1440 µg/mL.

Consider “YFLWP [literature AP from miiuy croaker muscle]”, for which, in data set [3] (APs from miiuy croaker muscle), the “EC50 on superoxide anion radical” value is 3080 µg/mL.

Turning to “FLHRP [literature AP from monkfish muscle]”, in data set [1] (APs from monkfish muscle), the “EC50 on hydroxyl radical” value was 114 µg/mL. Also, the “EC50 on superoxide anion radical” value in data set [3] (APs from monkfish muscle) was 101 µg/mL.

“HFGBPFH [literature AP from grass carp skin]”: the “EC50 on DPPH radical” value in data set [2] (AP from grass carp skin) is 200 µg/mL.

In the case of “FTGMD [literature AP from miiuy croaker swim bladder]”, the “EC50 on superoxide anion radical” value in data set [3] (setting [7]) was 3040 µg/mL.

Consider YPPAK [literature AP from blue mussel], for which, in data set [2] (AP from blue mussel), the “EC50 on DPPH radical” value was 2620 µg/mL.

As to “NWDMEKIWD [literature AP from skate muscle]”, the “EC50 on DPPH radical” value in data set [2] (AP from skate muscle) was 289 µg/mL.

For the compound “GFEPY [literature AP from miiuy croaker swim bladder]”, in data set [3] (setting [7]), the “EC50 on superoxide anion radical” value is 870 µg/mL.

In the case of “GADIVA [literature AP from skipjack tuna bone]”, in data set [1] (APs from skipjack tuna bone), the “EC50 on hydroxyl radical” value is 250 µg/mL. In addition, the “EC50 on DPPH radical” value in data set [2] (APs from skipjack tuna bone) is 570 µg/mL.

In the case of “FIGP [literature AP from bluefin leatherjacket skin]”, the “EC50 on DPPH radical” value in data set [2] (AP from bluefin leatherjacket skin) was 118 µg/mL.

As for “FIMGPY [literature AP from skate cartilage]”, the “EC50 on ABTS cation radical” value in data set [4] (APs from skate cartilage) was 1040 µg/mL.

As for “FWKVV [literature AP from miiuy croaker muscle]”, the “EC50 on hydroxyl radical” value in data set [1] (APs from miiuy croaker muscle) was 970 µg/mL. Further, the “EC50 on DPPH radical” value in data set [2] (APs from miiuy croaker muscle) was 850 µg/mL. Moreover, the “EC50 on superoxide anion radical” value in data set [3] (APs from miiuy croaker muscle) is 290 µg/mL.

As to “EWPAQ [literature AP from monkfish muscle]”, the “EC50 on hydroxyl radical” value in data set [1] (APs from monkfish muscle) is 269 µg/mL.

For the compound MDLFTE [TGP-3, Met-Asp-Leu-Phe-Thr-Glu], the “Susceptibility to GI digestive enzymes” value in data set [5] is “partially susceptible to be degradated by GI digestive enzymes”.

Consider “PYSFK [literature AP from grass carp skin]”, for which the “EC50 on hydroxyl radical” value in data set [1] (APs from grass carp skin) is 2283 µg/mL.

For “GPAGPAG [literature AP from croceine croaker scale]”, the “EC50 on hydroxyl radical” value in data set [1] (setting [8]) was 240 µg/mL. Moreover, the “EC50 on superoxide anion radical” value in data set [3] (setting [8]) is 99 µg/mL.

Turning to “WAFAPA [literature peptide from blue-spotted stingray]”, the “EC50 (half elimination ratio) on ABTS cation radical” value in data set [4] was 8330 µg/mL. For the same compound, in data set [6], the “Change of activity during heat treatment” value was “no significant (p > 0.05) differences” and the “Change of activity during pH treatment” value is reported as “no significant (p > 0.05) differences”.

As for “LMGQW [literature AP from monkfish muscle]”, the “EC50 on hydroxyl radical” value in data set [1] (APs from monkfish muscle) is 40 µg/mL. The “EC50 on superoxide anion radical” value in data set [3] (APs from monkfish muscle) was 42 µg/mL.

In the case of “NFWWP [literature AP from miiuy croaker muscle]”, the “EC50 on superoxide anion radical” value in data set [3] (APs from miiuy croaker muscle) was 840 µg/mL.

For “AGPM [literature AP from skipjack tuna bone]”, the “EC50 on ABTS cation radical” value in data set [4] (APs from skipjack tuna bone) was 1480 µg/mL. For the same compound, the “EC50 on superoxide anion radical” value in data set [3] (APs from skipjack tuna bone) is 1680 µg/mL.

`N[C@@H](Cc1c[nH]c2ccccc12)C(=O)N1CCC[C@H]1C(=O)N1CCC[C@H]1C(=O)N[C@@H](CC(=O)O)C(=O)O` [TGP-4, Trp-Pro-Pro-Asp] (H-WPPD-OH): the “Susceptibility to GI digestive enzymes” value in data set [5] is on record as “partially susceptible to be degradated by GI digestive enzymes”.

On to “GIISH [literature AP from spotless smoothhound muscle]”, for which the “EC50 on hydroxyl radical” value in data set [1] (setting [9]) was 76.9 µg/mL.

Take “FSGLR [literature AP from miiuy croaker swim bladder]”: in data set [3] (setting [7]), the “EC50 on superoxide anion radical” value was 3350 µg/mL.

“GFPSG [literature AP from croceine croaker scale]”: the “EC50 on hydroxyl radical” value in data set [1] (setting [8]) is 107 µg/mL. In addition, the “EC50 on superoxide anion radical” value in data set [3] (setting [8]) is 151 µg/mL.

“ATSHH [literature peptide from protein hydrolysate of sandfish (Arctoscopus japonicus)]”: the “Retention of activity after pH treatment” value in data set [6] (basic (pH 10–12) and acidic (pH 2) conditions) is on record as “moderate losses of activity”. The “Retention of DPPH radical scavenging activity after heating” value in data set [6] (incubated at 50–90 °C) is “partially lost its DPPH radical scavenging activity”.

With “IVAGPQ [literature AP from skate cartilage]”, the “EC50 on ABTS cation radical” value in data set [4] (APs from skate cartilage) is 1290 µg/mL.

Regarding “NADFGLNGLEGLA [literature AP from giant squid]”, in data set [1] (AP from giant squid), the “EC50 on hydroxyl radical” value was 612 µg/mL.

As to “GAEGFIF [literature AP from skipjack tuna bone]”, the “EC50 on hydroxyl radical” value in data set [1] (APs from skipjack tuna bone) is 320 µg/mL. In addition, the “EC50 on DPPH radical” value in data set [2] (APs from skipjack tuna bone) was 300 µg/mL.

Turning to “KFPE [literature AP from spotless smoothhound muscle]”, in data set [1] (setting [9]), the “EC50 on hydroxyl radical” value was 151 µg/mL.

For “MYPGLA [literature peptide from blue-spotted stingray]”, in data set [4], the “EC50 (half elimination ratio) on ABTS cation radical” value is 12880 µg/mL. Moreover, in data set [6], the “Change of activity during heat treatment” value is given as “no significant (p > 0.05) differences” and the “Change of activity during pH treatment” value is “no significant (p > 0.05) differences”.

As for “GFRGTIGLVG [literature AP from croceine croaker scale]”, the “EC50 on hydroxyl radical” value in data set [1] (setting [8]) is 293 µg/mL.

Take “GFVG [literature AP from spotless smoothhound muscle]”: in data set [4] (APs from spotless smoothhound muscle, no reference given), the “EC50 on ABTS cation radical” value is 1305.5 µg/mL.

On to “VGGRP [literature AP from grass carp skin]”, for which the “EC50 on hydroxyl radical” value in data set [1] (APs from grass carp skin) was 2055 µg/mL.

As for “LGLNGDDVN [literature AP from conger eel]”, in data set [1] (AP from conger eel), the “EC50 on hydroxyl radical” value is 687 µg/mL.

Take “ELLI [literature AP from spotless smoothhound muscle]”: in data set [1] (setting [9]), the “EC50 on hydroxyl radical” value is 117.3 µg/mL.

For “FPYLRH [literature AP from miiuy croaker swim bladder]”, the “EC50 on hydroxyl radical” value in data set [1] (setting [7]) was 680 µg/mL. In addition, the “EC50 on superoxide anion radical” value in data set [3] (setting [7]) is 340 µg/mL.
